Source: PubChem BioAssay AID2060493 (Molecular Pharmacology Branch, DTP, NCI, 2025)

Test system: 616215-338-R-J1-PDC tumor spheroids, viability
Assay: Anticancer human tumor 616215-338-R-J1-PDC patient-derived colon adenocarcinoma cell line growth inhibition [GQUAD]
Details: spheroids with HUVEC and MSC; for IC50: curve of first compound; for viability, T/C: stronger effect = lower value
Summary of the method: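 Viability of tumor cells grown as complex spheroids with endothelial and stromal cells, exposed to drug combinations. Top concentration at or near clinical Cmax (else 10 microM), diluted in half-log increments.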

[1] = second compound 0.0316 µM, first compound 0.0316 µM
[2] = second compound 0.0316 µM, first compound 0.1 µM
[3] = second compound 0.0316 µM, first compound 0.316 µM
[4] = second compound 0.0316 µM, first compound 1 µM
[5] = second compound 0.0316 µM, first compound 3.16 µM
[6] = second compound 0.0316 µM, first compound 10 µM
[7] = second compound 0.1 µM, first compound 0.0316 µM
[8] = second compound 0.1 µM, first compound 0.1 µM
[9] = second compound 0.1 µM, first compound 0.316 µM
[10] = second compound 0.1 µM, first compound 1 µM
[11] = second compound 0.1 µM, first compound 3.16 µM
[12] = second compound 0.1 µM, first compound 10 µM
[13] = second compound 0.316 µM, first compound 0.0316 µM
[14] = second compound 0.316 µM, first compound 0.1 µM
[15] = second compound 0.316 µM, first compound 0.316 µM
[16] = second compound 0.316 µM, first compound 1 µM
[17] = second compound 0.316 µM, first compound 3.16 µM
[18] = second compound 0.316 µM, first compound 10 µM
[19] = second compound 1 µM, first compound 0.0316 µM
[20] = second compound 1 µM, first compound 0.1 µM
[21] = second compound 1 µM, first compound 0.316 µM
[22] = second compound 1 µM, first compound 1 µM
[23] = second compound 1 µM, first compound 3.16 µM
[24] = second compound 1 µM, first compound 10 µM
[25] = second compound 3.16 µM, first compound 0.0316 µM
[26] = second compound 3.16 µM, first compound 0.1 µM
[27] = second compound 3.16 µM, first compound 0.316 µM
[28] = second compound 3.16 µM, first compound 1 µM
[29] = second compound 3.16 µM, first compound 3.16 µM
[30] = second compound 3.16 µM, first compound 10 µM
[31] = second compound 10 µM, first compound 0.0316 µM
[32] = second compound 10 µM, first compound 0.1 µM
[33] = second compound 10 µM, first compound 0.316 µM
[34] = second compound 10 µM, first compound 1 µM
[35] = second compound 10 µM, first compound 3.16 µM
[36] = second compound 10 µM, first compound 10 µM
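Also: spheroids exposed to agents for 7 days before readout.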
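For viability, T/C in this document: percent viability relative to DMSO vehicle control wells taken as 100%.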

COc1cccc2c1C(=O)c1c(O)c3c(c(O)c1C2=O)CC(O)(C(=O)CO)CC3OC1CC(N)C(O)C(C)O1 (stereo not drawn) + Cc1cnc(CNC(=O)c2c(=O)c3ccc(N4CCCN(C)CC4)nc3n3c2sc2ccccc23)cn1
IC50 (second compound 0.0316 µM): 0.381 µM
IC50 (second compound 0.1 µM): 0.41 µM
IC50 (second compound 0.316 µM): < 0.0316 µM
IC50 (second compound 1 µM): < 0.0316 µM
IC50 (second compound 3.16 µM): < 0.0316 µM
IC50 (second compound 10 µM): < 0.0316 µM
viability, T/C [1]: 102%
viability, T/C [2]: 54.7%
viability, T/C [3]: 50.2%
viability, T/C [4]: 40.5%
viability, T/C [5]: 20.2%
viability, T/C [6]: 1.32%
viability, T/C [7]: 56%
viability, T/C [8]: 67.4%
viability, T/C [9]: 49.7%
viability, T/C [10]: 39.2%
viability, T/C [11]: 19.4%
viability, T/C [12]: 1.25%
viability, T/C [13]: 38.2%
viability, T/C [14]: 39%
viability, T/C [15]: 32%
viability, T/C [16]: 27.7%
viability, T/C [17]: 19.9%
viability, T/C [18]: 0.1%
viability, T/C [19]: 28.1%
viability, T/C [20]: 37.7%
viability, T/C [21]: 34.5%
viability, T/C [22]: 26%
viability, T/C [23]: 12.6%
viability, T/C [24]: 0.1%
viability, T/C [25]: 29.8%
viability, T/C [26]: 28.1%
viability, T/C [27]: 35.1%
viability, T/C [28]: 16.4%
viability, T/C [29]: 15.3%
viability, T/C [30]: 0.16%
viability, T/C [31]: 28%
viability, T/C [32]: 20.8%
viability, T/C [33]: 28.3%
viability, T/C [34]: 23.1%
viability, T/C [35]: 3.24%
viability, T/C [36]: 0.25%

CC(C)n1c(=O)n(C)c2cnc3cc(F)c(-c4ccc(OCCCN5CCCCC5)nc4)cc3c21 + CN(C)c1ccc(Nc2c3ccc(NC(=O)CCN4CCCC4)cc3nc3cc(NC(=O)CCN4CCCC4)ccc23)cc1
IC50 (second compound 0.0316 µM): > 10 µM
IC50 (second compound 0.1 µM): > 10 µM
IC50 (second compound 0.316 µM): > 10 µM
IC50 (second compound 1 µM): > 10 µM
IC50 (second compound 3.16 µM): 9.93 µM
IC50 (second compound 10 µM): 3.09 µM
viability, T/C [1]: 110%
viability, T/C [2]: 112%
viability, T/C [3]: 96.3%
viability, T/C [4]: 109%
viability, T/C [5]: 105%
viability, T/C [6]: 62.2%
viability, T/C [7]: 110%
viability, T/C [8]: 104%
viability, T/C [9]: 101%
viability, T/C [10]: 111%
viability, T/C [11]: 103%
viability, T/C [12]: 81.1%
viability, T/C [13]: 97.2%
viability, T/C [14]: 99.7%
viability, T/C [15]: 97.8%
viability, T/C [16]: 103%
viability, T/C [17]: 121%
viability, T/C [18]: 95.7%
viability, T/C [19]: 101%
viability, T/C [20]: 97.2%
viability, T/C [21]: 103%
viability, T/C [22]: 97.9%
viability, T/C [23]: 111%
viability, T/C [24]: 83.5%
viability, T/C [25]: 105%
viability, T/C [26]: 101%
viability, T/C [27]: 101%
viability, T/C [28]: 91.9%
viability, T/C [29]: 100%
viability, T/C [30]: 49.6%
viability, T/C [31]: 95.8%
viability, T/C [32]: 77.1%
viability, T/C [33]: 55.6%
viability, T/C [34]: 64.6%
viability, T/C [35]: 61.6%
viability, T/C [36]: 7.08%

CC1COCCN1c1cc(C2(S(C)(=N)=O)CC2)nc(-c2ccnc3[nH]ccc23)n1 (stereo not drawn) + Cc1[nH]c2ccc(F)cc2c1-c1nc2c3cccnc3c3ncccc3c2[nH]1
IC50 (second compound 0.0316 µM): 9.28 µM
IC50 (second compound 0.1 µM): 6.38 µM
IC50 (second compound 0.316 µM): 7.03 µM
IC50 (second compound 1 µM): 7.04 µM
IC50 (second compound 3.16 µM): 6.05 µM
IC50 (second compound 10 µM): 5.79 µM
viability, T/C [1]: 109%
viability, T/C [2]: 108%
viability, T/C [3]: 104%
viability, T/C [4]: 96.1%
viability, T/C [5]: 81.5%
viability, T/C [6]: 47.2%
viability, T/C [7]: 105%
viability, T/C [8]: 116%
viability, T/C [9]: 104%
viability, T/C [10]: 110%
viability, T/C [11]: 69.2%
viability, T/C [12]: 37.6%
viability, T/C [13]: 92.6%
viability, T/C [14]: 110%
viability, T/C [15]: 99.8%
viability, T/C [16]: 101%
viability, T/C [17]: 69.7%
viability, T/C [18]: 41.3%
viability, T/C [19]: 90.7%
viability, T/C [20]: 110%
viability, T/C [21]: 102%
viability, T/C [22]: 95.5%
viability, T/C [23]: 81.5%
viability, T/C [24]: 36.1%
viability, T/C [25]: 107%
viability, T/C [26]: 93.6%
viability, T/C [27]: 92.2%
viability, T/C [28]: 98.7%
viability, T/C [29]: 69.5%
viability, T/C [30]: 35%
viability, T/C [31]: 119%
viability, T/C [32]: 105%
viability, T/C [33]: 93.3%
viability, T/C [34]: 95.1%
viability, T/C [35]: 68.4%
viability, T/C [36]: 32.5%

CC(C)n1c(=O)n(C)c2cnc3cc(F)c(-c4ccc(OCCCN5CCCCC5)nc4)cc3c21 + Cc1[nH]c2ccc(F)cc2c1-c1nc2c3cccnc3c3ncccc3c2[nH]1
IC50 (second compound 0.0316 µM): > 10 µM
IC50 (second compound 0.1 µM): > 10 µM
IC50 (second compound 0.316 µM): > 10 µM
IC50 (second compound 1 µM): > 10 µM
IC50 (second compound 3.16 µM): > 10 µM
IC50 (second compound 10 µM): > 10 µM
viability, T/C [1]: 102%
viability, T/C [2]: 98.8%
viability, T/C [3]: 97.5%
viability, T/C [4]: 101%
viability, T/C [5]: 117%
viability, T/C [6]: 70.9%
viability, T/C [7]: 103%
viability, T/C [8]: 99.6%
viability, T/C [9]: 100%
viability, T/C [10]: 107%
viability, T/C [11]: 112%
viability, T/C [12]: 85.7%
viability, T/C [13]: 107%
viability, T/C [14]: 99.3%
viability, T/C [15]: 100%
viability, T/C [16]: 106%
viability, T/C [17]: 100%
viability, T/C [18]: 72.9%
viability, T/C [19]: 99%
viability, T/C [20]: 116%
viability, T/C [21]: 97.5%
viability, T/C [22]: 93.6%
viability, T/C [23]: 101%
viability, T/C [24]: 95.7%
viability, T/C [25]: 99%
viability, T/C [26]: 93.8%
viability, T/C [27]: 87.3%
viability, T/C [28]: 98.7%
viability, T/C [29]: 104%
viability, T/C [30]: 57.4%
viability, T/C [31]: 94.5%
viability, T/C [32]: 94.7%
viability, T/C [33]: 99.1%
viability, T/C [34]: 91.2%
viability, T/C [35]: 107%
viability, T/C [36]: 87%
